Measurements taken from patent US20230144436A1, “MUSCLE TARGETING COMPLEXES AND USES THEREOF FOR TREATING MYOTONIC DYSTROPHY” (Dyne Therapeutics, Inc., priority 2020, published 2023).

System: DMPK
Assay: DMPK knockdown by transfected antisense oligonucleotides in DM1 C15 myotubes at 0.5 nM and 50 nM
Assay type: cell-based
Conditions: 72 hours; for Normalized DMPK Remaining: relative to vehicle control = 1.00
How it was run: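 Seven-day-differentiated DM1 C15 myotubes transfected (Lipofectamine MessengerMax) with each oligonucleotide at 0.5 nM or 50 nM final, biological triplicates. After 72 h, DMPK mRNA quantified by qPCR, expressed relative to vehicle-only transfection set to 1.00.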

Row | Substance | Percent DMPK Reduction (0.5 nM oligonucleotide) [%] | Normalized DMPK Remaining (0.5 nM oligonucleotide) | Percent DMPK Reduction (50 nM oligonucleotide) [%] | Normalized DMPK Remaining (50 nM oligonucleotide)
1 | 431 (GGAGCAGGGAAAGCGCCUCC; chemistry not given here) [compound 431] | 21.46 | 0.79 | 88.35 | 0.12
2 | 432 (UGCCUCGCGUAGUUGACUGG; chemistry not given here) [compound 432] | 11.03 | 0.89 | 88.02 | 0.12
3 | 433 (GCGGAUGGCCUCCAUCUCCC; chemistry not given here) [compound 433] | 21.25 | 0.79 | 71.77 | 0.28
4 | 434 (UUUCAUAGGCGAAUACACCC; chemistry not given here) [compound 434] | 5.56 | 0.94 | 53.28 | 0.47
5 | 435 (GCCUGUCAGCGAGUCGGAGG; chemistry not given here) [compound 435] | 10.81 | 0.89 | 75.67 | 0.24
6 | 436 (CCACUUCAGCUGUUUCAUCC; chemistry not given here) [compound 436] | 22.40 | 0.78 | 64.20 | 0.36
7 | 437 (CAUCCGCUCCUGCAACUGCC; chemistry not given here) [compound 437] | 21.04 | 0.79 | 76.81 | 0.23
8 | 438 (UCUAGGGUUCAGGGAGCGCG; chemistry not given here) [compound 438] | 21.81 | 0.78 | 83.22 | 0.17
9 | 439 (CACCAACACGUCCCUCUCCU; chemistry not given here) [compound 439] | 37.51 | 0.62 | 81.57 | 0.18
10 | 440 (CAGGAGCAGGGAAAGCGCCU; chemistry not given here) [compound 440] | 12.48 | 0.88 | 51.82 | 0.48
11 | 441 (CAAUCUCCGCCAGGUAGAAG; chemistry not given here) [compound 441] | 15.95 | 0.84 | 49.25 | 0.51
12 | 442 (AUGUUGUCGGGUUUGAUGUC; chemistry not given here) [compound 442] | 16.93 | 0.83 | 52.83 | 0.47
13 | 443 (CCAUCCGCUCCUGCAACUGC; chemistry not given here) [compound 443] | 19.53 | 0.80 | 71.62 | 0.28
14 | 444 (GCGUCACCUCGGCCUCAGCC; chemistry not given here) [compound 444] | 20.02 | 0.80 | 81.27 | 0.19
15 | 445 (GAGGGCCUUUUAUUCGCGAG; chemistry not given here) [compound 445] | 8.23 | 0.92 | 62.21 | 0.38
16 | 446 (AGCGGCAGAGAGAGGUGCUC; chemistry not given here) [compound 446] | 19.75 | 0.80 | 90.71 | 0.09
